Reference: patent US20240140947A1, “COMPOUND FOR THE TREATMENT OF CANCER” (priority 2022, published 2024)
Where two headings read alike, the source gives them in different places.

Key:
[1] = tested on: MCF7, T47D, and HCC1428 parental ER+ breast cancer cell lines; test: Cell proliferation assay, parental ER+ breast cancer cell lines (range over lines); type: cell-based; conditions: Homo sapiens, read-out: anti-proliferation IC50 values, range over cell lines
Description: (§1) OVCAR3, MCF7, T47D, HCC1428, NCIH2087, NCIH358 or A549cells were seeded 1-3000 cells/well in 96-well plates in growth media containing 10% FBS and cultured overnight at 37° C. 5% CO2. The following day, compounds were serially diluted from a 10 mM top dose for an 11-point 3-fold dilution curve in DMSO. Compound 1 and PF-06873600 were intermediately diluted 1:200 into growth media prior to diluting 1:5 on cells for final concentration 10 μM to 0.1 nM in 0.1% DMSO on cells. Cells were incubated at 37° C. 5% CO2 for 7 days. CYQUANT Direct Cell Proliferation Assay (Molecular Probes, Eugene, OR) was then performed following manufacturer recommendations to determine the relative viable cell numbers on the Perkin Elmer Envision 2104 Multi Label Reader at 508 nm excitation and 527 nm emission wavelengths. IC50 values were calculated by concentration-response curve fitting utilizing a four-parameter analytical method using GraphPad Prism software.
The effect of Compound 1 on cell proliferation was assessed in multiple ER+ breast cancer cell lines, including parental and palbociclib resistant cell lines.
Similar results were shown with NCIH2087, NCIH358, and A549 NSCLC cell lines ([…].4).

[2] = Human blood-to-plasma partition ratio (BPR); type: in vitro ADME; parameters: dose or concentration left out as unconfirmed; conditions: fresh whole blood, 37° C.
Description: Compound 1 has been evaluated according to methods well known in the art, for its ability to partition between human plasma and blood. Based on the observed partitioning and plasma protein binding, the blood binding was estimated based on human blood unbound fraction (fub)=human plasma unbound fraction (fup)/human blood-to-plasma partition ratio (BPR). […] At the end of the incubations, blood and plasma samples were matrix-matched and analyzed by LC-MS/MS. BPR was calculated by dividing the blood and plasma measure peak areas.

[3] = Prediction of human clearance, volume of distribution and elimination half-life; conditions: for Mean Vdss unbound: (mean animal Vdss unbound values): Wistar-Hannover (rat), rat and/or dog, iv; for CLb: predicted total clearance: scaled from CLint HHEP and fub, Q=20 ml/min/kg
Description: To determine and compare the predicted human elimination half-lives, compounds 1-4 were evaluated for their human blood-to-plasma partition ratio (BPR) along with other key in vitro ADME data including metabolic stability in human hepatocytes (CL, nt HHEP).
The predicted total clearance in human (CLb) was first determined based on the in vitro human metabolism data shown below using the equation:
CLb=(Q·fub·CLintHHEP)/[(Q+fub)·CLintHHEP]
(Scaling Clint HHEP from μl/min/M to ml/min/kg based on hepatocellularity (120×10^6/ g liver), g of liver per Kg bodyweight (21g/Kg), assuming hepatocyte binding is negligible and liver blood flow Q=20 ml/min/kg.)
The projected human volume of distribution at steady state in human blood (Vdss_human) was then calculated based on the animal (rat and/or dog) PK data. The Vdss_human was calculated factoring in differences in blood binding across compounds. Due to the high blood-to-plasma partition ratio in Compounds 1 and 4, the corresponding Vdss_human was limited to the blood volume with Vdss_human estimated to be 0.07 L/Kg.
Using the estimates of CLb and Vdss_human, the predicted human elimination half-lives of compounds 1-4 were calculated according to the equation:
Half-life=0.693·Vdss_human/CLb

[4] = Preliminary assessment of metabolism (hepatocytes, human liver microsomes, plasma after oral dosing); type: in vitro ADME, rat, rabbit; conditions: hepatocytes of six species, plasma from monkey, dog and mouse
Description: A preliminary assessment of the metabolism of Compound 1 was conducted using mouse, rat, rabbit, dog, monkey and human hepatocytes; human liver microsomes; plasma from monkey, dog and mouse studies following oral dosing. The primary metabolic pathway of Compound 1 was oxidation.

[5] = biological target: T1, CDK6/Cyclin D3 (Homo sapiens, UniProt Q00534); test: CDK6/Cyclin D3 mobility shift assay; type: biochemical; conditions: geometric mean, 3.5 mM ATP
T1 construct: LJIC-2009G1/2010+PO4
T1 sequence (Q00534 whole entry): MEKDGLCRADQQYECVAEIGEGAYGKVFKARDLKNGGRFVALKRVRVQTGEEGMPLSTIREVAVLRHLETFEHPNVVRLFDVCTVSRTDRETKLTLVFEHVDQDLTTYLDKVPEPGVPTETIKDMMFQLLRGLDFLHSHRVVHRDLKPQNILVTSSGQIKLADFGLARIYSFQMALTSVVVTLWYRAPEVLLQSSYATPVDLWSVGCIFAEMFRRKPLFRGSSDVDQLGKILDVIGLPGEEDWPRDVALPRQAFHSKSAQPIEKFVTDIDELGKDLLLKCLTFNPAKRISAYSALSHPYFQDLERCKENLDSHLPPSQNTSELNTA
T1 sequence (P30281 whole entry partner): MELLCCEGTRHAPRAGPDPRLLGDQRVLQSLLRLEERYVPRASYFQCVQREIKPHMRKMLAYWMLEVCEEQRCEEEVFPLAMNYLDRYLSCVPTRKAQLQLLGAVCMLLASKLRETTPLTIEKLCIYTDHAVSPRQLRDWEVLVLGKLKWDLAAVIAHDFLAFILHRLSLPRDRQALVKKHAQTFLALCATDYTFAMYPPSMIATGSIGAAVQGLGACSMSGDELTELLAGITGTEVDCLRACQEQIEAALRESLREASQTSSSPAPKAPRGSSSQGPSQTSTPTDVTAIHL
Description: The mobility shift assay electrophoretically separates the fluorescently labeled peptides (substrate and phosphorylated product) following the kinase reaction. Both substrate and product are measured, and the ratio of these values is used to generate % conversion of substrate to product by the LabChip EZ Reader.
The reaction was stopped after 95 minutes by the addition of 50 μL of 30 mM EDTA. Ki determinations were made from a plot of the fractional velocity as a function of inhibitor concentration fit to the Morrison equation with the enzyme concentration as a variable.
For CDK4 and CDK6 mobility shift assays, see also Morrison, J. F. (1969) Kinetics of the reversible inhibition of enzyme-catalysed reactions by tight-binding inhibitors, Biochimica et biophysica acta 185, 269-286; and Murphy, D. J. (2004) Determination of accurate KI values for tight-binding enzyme inhibitors: an in silico study of experimental error and assay design, Analytical biochemistry 327, 61-67.

[6] = biological target: T2, CDK2/Cyclin E1 (Homo sapiens, UniProt P24941); test: CDK2/Cyclin E1 mobility shift assay; type: biochemical; conditions: geometric mean, 150 μM ATP
T2 construct: Wild-type full length CDK2/wild-type full length Cyclin E1 enzyme complex was produced in-house
Description: (CPC Scientific, Sunnyvale, CA). The mobility shift assay electrophoretically separates the fluorescently labeled peptides (substrate and phosphorylated product) following the kinase reaction. Both substrate and product are measured, and the ratio of these values is used to generate % conversion of substrate to product by the LabChip EZ Reader. […] The assay was initiated with the addition of ATP, following a fifteen minutes pre-incubation of enzyme and inhibitor at room temperature in the reaction mixture. The reaction was stopped after 45 minutes at room temperature by the addition of 50 μL of 80 mM EDTA, pH 7.5. The Ki value was determined from the fit of the data to the Morrison tight-binding competitive inhibition equation with the enzyme concentration as a variable.

[7] = tested on: OVCAR3; test: Cell proliferation assay (CYQUANT, 7 days), OVCAR3; type: cell-based; conditions: Homo sapiens, OVCAR-3, 168 h, read-out: IC50 ± SEM, proliferation inhibition
Description: Cellular CDK activity of Compound 1 and PF-06873600 were assessed in human CCNE1-amplified ovarian cancer cell line model OVCAR3 and human ER+ breast cancer cell line model MCF7 cells. […] OVCAR3 cells were treated overnight with 1 mM hydroxyurea to enrich for G1/S phase cells prior to treatment with inhibitors. Functional effects were measured in a 7-day anti-proliferation assay in one human ovarian cancer (OVCAR3), two human ER+ breast cancer (MCF7 and T47D) and three human non-small cell lung cancer (NCIH2087, NCIH358 and A549) cell line models.
as §1, with “Compound 1 and PF-06873600 were intermediately diluted 1:200 into growth media prior to diluting 1:5 on cells for final concentration 10 μM to 0.1 nM in 0.1% DMSO on cells. Cells were incubated at 37° C. 5% CO2 for 7 days.” left out

[8] = Observed human half-life; type: in vivo

## C[C@@]1(O)CCC[C@H]1n1c(=O)c(CC(F)F)cc2cnc(NC3CCN(S(N)(=O)=O)CC3)nc21 [Compound 1, 4-({6-(2,2-difluoroethyl)-8-[(1R,2R)-2-hydroxy-2-methylcyclopentyl]-7-oxo-7,8-dihydropyrido[2,3-d]pyrimidin-2-yl}amino)piperidine-1-sulfonamide]
[1]
  IC50: 14.3 to 17.6 nM
[2]
  blood plasma ratio at 1 h: 79
[3]
  Mean Vdss unbound: (mean animal Vdss unbound values): 8.8 L/kg
[3]; human
  (adjusted) predicted t1/2 based on PF-06873600's observed t1/2: 34 h
  Vdss—human limited to the blood volume (lower limit): 0.07 L/kg
  Vdss—human: projected volume of distribution (steady state): 0.019 L/kg L/Kg
  CLb: predicted total clearance: 0.011 mL/min/kg
[4]
  primary metabolic pathway: oxidation
[5]
  Ki: 3.1 nM
[6]
  Ki: 0.08 nM
[7]; OVCAR3, 7 days, mean
  IC50: 11.4 nM

## C[C@@]1(O)CCC[C@H]1n1c(=O)c(C(F)F)cc2cnc(NC3CCN(S(C)(=O)=O)CC3)nc21 [Compound 2, reference compound]
[3]
  Mean Vdss unbound: (mean animal Vdss unbound values): 2.8 L/kg
[3]; human
  Vdss—human: projected volume of distribution (steady state): 0.9 L/kg
  CLb: predicted total clearance: 1.5 mL/min/kg
[8]
  observed human t1/2: ~3 h
[8]; in vivo, read-out: observed human t1/2 (converted)
  half-life: 3 h
[7]
  IC50: 70 ± 11.7 nM
